Reference: ChEMBL document CHEMBL6109128, “Copper-KRAS-COX2 Axis: A Therapeutic Vulnerability in Pancreatic Cancer” (J Med Chem, 2025)
Activity calls are given as the source filed them. No cut-off for these calls is given here.

Key:
[1] = Toxicity in BALB/c mouse assessed as kidney damage at 20 mg/kg, po measured after 29 days by H and E staining based analysis; type: organism-based; settings: in vivo, 696 h, time 29 day
[2] = Drug concentration in mouse kidney at 15 mg/kg, iv measured at 24 hrs; type: ADME, organism-based; settings: read-out: Ct
[3] = Toxicity in BALB/c mouse assessed as stomach damage at 20 mg/kg, po measured after 29 days by H and E staining based analysis; type: organism-based; settings: in vivo, 696 h, time 29 day
[4] = Toxicity in BALB/c mouse assessed as maximum tolerated dose at IV measured for 7 days; settings: in vivo, time 7 day
[5] = tested on: CT26; assay: Antitumor activity against mouse CT26 cells implanted in BALB/c mouse assessed as tumor growth inhibition at 50 to 100 mg/kg, po administered for 14 days in presence of celecoxib; type: functional, organism-based; settings: dose 50-100 mg/kg, time 14.0 day
[6] = tested on: Panc02; assay: Antitumor activity against mouse Panc02 cells xenografted in C57BL/6 mouse assessed as tumor growth inhibition at 20 to 40 mg/kg, ip measured for 21 to 28 days; type: functional, organism-based; settings: dose 20-40 mg/kg, time 21-28 day
[7] = tested on: CT26; assay: Antitumor activity against mouse CT26 cells implanted in BALB/c mouse assessed as increase in cleaved PARP level at 140 mg/kg, iv administered for 3 days; type: functional, organism-based; settings: time 3.0 day
[8] = Drug concentration in mouse liver at 15 mg/kg, iv measured at 7 hrs; type: ADME, organism-based; settings: read-out: Ct
[9] = tested on: CT26; assay: Antitumor activity against mouse CT26 cells implanted in BALB/c mouse assessed as increase in cleaved PARP level at 50 mg/kg, po measured after 14 days; type: functional, organism-based; settings: time 14.0 day
[10] = Drug concentration in mouse plasma at 15 mg/kg, iv measured at 24 hrs; type: ADME, organism-based
[11] = tested on: HCT-116; assay: Induction of apoptosis in human HCT-116 cells assessed as upregulation of cleaved PARP level measured for 48 hrs by Western blot analysis; type: functional, cell-based; settings: dose 10.0 µM
[12] = Drug concentration in mouse heart at 30 mg/kg, po measured at 24 hrs; type: ADME, organism-based; settings: read-out: Ct
[13] = Drug concentration in mouse liver at 30 mg/kg, po measured at 7 hrs; type: ADME, organism-based; settings: read-out: Ct
[14] = tested on: CT26; assay: Antitumor activity against mouse CT26 cells implanted in BALB/c mouse assessed as increase in animal survival at 100 mg/kg, po measured after 14 days; type: functional, organism-based; settings: time 14.0 day
[15] = Drug concentration in mouse heart at 15 mg/kg, iv measured at 7 hrs; type: ADME, organism-based; settings: read-out: Ct
[16] = tested on: CT26; assay: Antitumor activity against mouse CT26 cells implanted in BALB/c mouse assessed as increase in cleaved PARP level at 140 mg/kg, po administered for 3 days; type: functional, organism-based; settings: time 3.0 day
[17] = Drug concentration in mouse kidney at 15 mg/kg, iv measured at 7 hrs; type: ADME, organism-based; settings: read-out: Ct
[18] = Toxicity in BALB/c mouse assessed as liver damage at 20 mg/kg, po measured after 29 days by H and E staining based analysis; type: organism-based; settings: in vivo, 696 h, time 29 day
[19] = tested on: KPC2; assay: Antitumor activity against mouse KPC2 cells implanted in FVB mouse assessed as reduction in tumor burden at 25 mg/kg, po measured after 14 days; type: functional, organism-based; settings: time 14.0 day
[20] = Toxicity in BALB/c mouse assessed as heart damage at 20 mg/kg, po measured after 29 days by H and E staining based analysis; type: organism-based; settings: in vivo, 696 h, time 29 day
[21] = Drug concentration in mouse plasma at 15 mg/kg, iv measured at 7 hrs; type: ADME, organism-based
[22] = tested on: CT26; assay: Antitumor activity against mouse CT26 cells implanted in BALB/c mouse assessed as increase in cleaved caspase-3 level at 50 mg/kg, po measured after 14 days; type: functional, organism-based; settings: time 14.0 day
[23] = Toxicity in BALB/c mouse assessed as colon damage at 20 mg/kg, po measured after 29 days by H and E staining based analysis; type: organism-based; settings: in vivo, 696 h, time 29 day
[24] = Drug concentration in mouse plasma at 30 mg/kg, po measured at 7 hrs; type: ADME, organism-based
[25] = Drug concentration in mouse plasma at 30 mg/kg, po measured at 24 hrs; type: ADME, organism-based
[26] = Drug concentration in mouse kidney at 30 mg/kg, po measured at 24 hrs; type: ADME, organism-based; settings: read-out: Ct
[27] = Drug concentration in mouse liver at 15 mg/kg, iv measured at 24 hrs; type: ADME, organism-based; settings: read-out: Ct
[28] = Drug concentration in mouse liver at 30 mg/kg, po measured at 24 hrs; type: ADME, organism-based; settings: read-out: Ct

**Q.** For N[C@@H]1[C@H]2CN(c3cnc(C(=O)Nc4cc(F)cc5cccnc45)cn3)C[C@@H]12, which Activity [1] is on record?
**A.** Non-toxic

**Q.** And the concentration at 24 h [2]?
**A.** 53 ng/g

**Q.** And the Activity [3]?
**A.** Non-toxic

**Q.** What about the MTD at 168 h [4] of the same compound?
**A.** 140 mg/kg

**Q.** What about the TGI [5] of the same compound?
**A.** Active

**Q.** What about the TGI [6] of the same compound?
**A.** Active

**Q.** And the Activity [7]?
**A.** Active

**Q.** And the concentration at 7 h [8]?
**A.** 2140 ng/g

**Q.** What about the Activity [9] of the same compound?
**A.** Active

**Q.** And the concentration at 24 h [10]?
**A.** 7 ng/mL

**Q.** And the Activity [11]?
**A.** Dose-dependent-effect

**Q.** And the concentration at 24 h [12]?
**A.** 57 ng/g

**Q.** What about the concentration at 7 h [13] of the same compound?
**A.** 5530 ng/g

**Q.** What about the Activity [14] of the same compound?
**A.** Active

**Q.** And the concentration at 7 h [15]?
**A.** 882 ng/g

**Q.** And the Activity [16]?
**A.** Active

**Q.** What about the concentration at 7 h [17] of the same compound?
**A.** 2690 ng/g

**Q.** What about the Activity [18] of the same compound?
**A.** Non-toxic

**Q.** And the Activity [19]?
**A.** Active

**Q.** What about the Activity [20] of the same compound?
**A.** Non-toxic

**Q.** What about the concentration at 7 h [21] of the same compound?
**A.** 98 ng/mL

**Q.** And the Activity [22]?
**A.** Active

**Q.** And the Activity [23]?
**A.** Non-toxic

**Q.** And the concentration at 7 h [24]?
**A.** 293 ng/mL

**Q.** What about the concentration at 24 h [25] of the same compound?
**A.** 7 ng/mL

**Q.** And the concentration at 24 h [26]?
**A.** 137 ng/g

**Q.** What about the concentration at 24 h [27] of the same compound?
**A.** 48 ng/g

**Q.** And the concentration at 24 h [28]?
**A.** 92 ng/g
